According to US20060004029A1, “Nitrogen-containing aromatic derivatives” (priority 2003, published 2006):
Where two headings read alike, the source gives them in different places.

Experiments:
FGFR1 = target: T1, FGFR1 (Homo sapiens, UniProt P11362); experiment: Inhibition against receptor tyrosine kinase activity (HTRF), FGFR1; type: biochemical
T1 construct: made in house; host or cells: Sf9 insect cells, baculovirus (pFastBacHis), by the same method as VEGFR2
Source text: This assay is used to determine inhibition of a test substance on tyrosine kinase activity. DNA coding for the cytoplasmic domain of VEGFR2 is obtained by total cDNA synthesis (Edwards M, International Biotechnology Lab 5(3), 19-25, 1987) or by cloning. Expression in an appropriate expression system can produce a polypeptide with tyrosine kinase activity. […] For VEGFR2 (GenBank Accession No. L04947), the 1.7 kb DNA fragment described by Terman et al. (Oncogene, 6(9), 1677-1683, 1991), coding for the cytoplasmic domain, beginning with lysine 791 and including the termination codon, was isolated from a human placental cDNA library (purchased from Clontech Laboratories, Inc.) and cloned in a Baculovirus expression vector (pFastBacHis, purchased from GIBCO BRL). The recombinant construct was transfected into insect cells (Spondoptea frugiperda9 (Sf9)) to prepare a recombinant Baculovirus. (Instructions for preparation and use of recombinant Baculovirus may be found in standard texts, such as “Bac-To-Bac Baculovirus Expression System” (GIBCO BRL).) The cytoplasmic fragment starting from lysine 398 (FGFR1, GenBank Accession No. X52833), the cytoplasmic fragment starting from lysine 558 (PDGFRβ, GenBank Accession No. M21616) or the cytoplasmic fragment starting from lysine 974 (HGFR, GenBank Accession No. J02958) may be cloned and expressed by the same method for use in assays for other tyrosine kinases. EGFR was purchased from Sigma Co. (Product No. E-2645).
(§1) For expression of the VEGFR2 tyrosine kinase, Sf9 cells were infected with the VEGFR2 recombinant virus and collected after 48 hours. The collected cells were rinsed with ice-cooled phosphate buffered saline (PBS) and then resuspended using 20 ml of ice-cooled Lysis Buffer (50 mM Tris-HCl (pH 8.5), 5 mM 2-mercaptoethanol, 100 mM KCl, 1 mM phenylmethylsulfonyl fluoride, 1% (v/v) NP-40) per 1.5×10^8 cells. The suspension was centrifuged at 12,000 rpm for 30 minutes at 4° C. and the supernatant was obtained. The supernatant was added to a Ni-NTA agarose column (3 ml, purchased from Qiagen) equilibrated with Buffer A {20 mM Tris-HCl (pH 8.5), 5 mM 2-mercaptoethanol, 500 mM KCl, 20 mM imidazole, 10% (v/v) glycerol}. The column was washed with 30 ml of Buffer A, and then with 6 ml of Buffer B {20 mM Tris-HCl (pH 8.5), 5 mM 2-mercaptoethanol, 1M KCl, 10% (v/v) glycerol}, and finally with 6 ml of Buffer A. After washing, it was eluted with 6 ml of Buffer C {20 mM Tris-HCl (pH 8.5), 5 mM 2-mercaptoethanol, 100 mM KCl, 100 mM imidazole, 10% (v/v) glycerol}. The eluate was placed on a dialysis membrane (purchased from Spectrum Laboratories) and dialyzed with a dialysis buffer {20 mM Tris-HCl (pH 7.5), 10% (v/v) glycerol, 1 mM dithiothreitol, 0.1 mM Na3VO4, 0.1 mM EGTA}. After dialysis, it was supplied for SDS-electrophoresis, and the recombinant protein (His6-VEGFR2, cytoplasmic domain of VEGFR2 fused with 6 histidine residues at the N-terminus) detected at a molecular weight of approximately 100 kDa with Coumassie Brilliant Blue staining was assayed using BSA (bovine serum albumin, purchased from Sigma Co.) as the standard substance, and stored at −80° C. until use. Using the same method for the cytoplasmic domains of FGFR1, PDGFRβ and HGFR yielded respective recombinant proteins fused with 6 histidine residues at the N-terminal (His6-FGFR1, His6-PDGFRβ or His6-HGFR).
The tyrosine kinase reaction was conducted as follows. In the case of VEGFR2, for example, 10 μl of a kinase reaction solution {200 mM Hepes (pH 7.4), 80 mM MgCl2, 16 mM MnCl2, 2 mM Na3VO4}, 250 ng of biotin-bound poly(Glu4:Tyr1) (biotin-poly(GT), purchased from CIS Diagnostics Co.) (6 μl of a 15-fold dilution with distilled water), 15 ng of His6-VEGFR2 (10 μl of a 240-fold dilution with 0.4% BSA solution) and the test substance dissolved in dimethyl sulfoxide (4 μl of a 100-fold dilution with 0.1% BSA solution) were added into each well of a 96-well round-bottom plate (NUNC Co., Product No. 163320), to a total of 30 μl. […]

VEGFR2 = target: T2, VEGFR2 (Homo sapiens, UniProt P35968); experiment: Inhibition against receptor tyrosine kinase activity (HTRF), VEGFR2; type: biochemical
T2 construct: coding for the cytoplasmic domain, beginning with lysine 791 and including the termination codon; made in house; host or cells: Sf9 insect cells, baculovirus (pFastBacHis)
Experimental: This assay is used to determine inhibition of a test substance on tyrosine kinase activity. […] Expression in an appropriate expression system can produce a polypeptide with tyrosine kinase activity. […] The recombinant construct was transfected into insect cells (Spondoptea frugiperda9 (Sf9)) to prepare a recombinant Baculovirus.
as §1, with “After dialysis, it was supplied for SDS-electrophoresis, and the recombinant protein (His6-VEGFR2, cytoplasmic domain of VEGFR2 fused with 6 histidine residues at the N-terminus) detected at a molecular weight of approximately 100 kDa with Coumassie Brilliant Blue staining was assayed using BSA (bovine serum albumin, purchased from Sigma Co.) as the standard substance, and stored at −80° C. until use.” left out
The tyrosine kinase reaction was conducted as follows. […] Next, 10 μl of 4 μM ATP (diluted with distilled water) was added prior to incubation at 30° C. for 10 minutes, and then 10 μl of 500 mM EDTA (pH 8.0) was added.
The tyrosine phosphorylation rate for the biotin-poly(GT) was expressed as the delta F % value as described in the HTRF Standard Experiment Methods text by CIS Diagnostics Co. The delta F % value in the presence of the test substance was determined as a ratio (%) with the delta F % value with addition of His6-VEGFR2 in the absence of the test substance defined as 100% and the delta F % value in the absence of both the test substance and His6-VEGFR2 defined as 0%.

[1] = His6-FGFR1 cytoplasmic domain, biotin-poly(GT), HTRF, read-out: FGFR1 kinase IC50
[2] = His6-VEGFR2 cytoplasmic domain, biotin-poly(GT), HTRF, read-out: VEGFR2 kinase IC50

T1 sequence (P11362 398-822 limits assumed): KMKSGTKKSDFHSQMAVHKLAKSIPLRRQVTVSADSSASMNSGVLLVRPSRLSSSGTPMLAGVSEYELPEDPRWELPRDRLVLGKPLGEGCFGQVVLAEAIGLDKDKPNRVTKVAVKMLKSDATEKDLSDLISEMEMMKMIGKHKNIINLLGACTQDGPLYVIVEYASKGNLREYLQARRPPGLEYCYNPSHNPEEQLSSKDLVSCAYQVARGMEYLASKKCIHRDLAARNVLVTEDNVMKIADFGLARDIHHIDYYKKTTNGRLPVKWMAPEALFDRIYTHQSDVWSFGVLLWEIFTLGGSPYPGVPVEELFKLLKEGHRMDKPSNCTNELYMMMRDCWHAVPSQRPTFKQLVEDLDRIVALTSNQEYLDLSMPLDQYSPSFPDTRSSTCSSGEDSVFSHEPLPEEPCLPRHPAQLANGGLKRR
T2 sequence (P35968 786-1356 limits assumed): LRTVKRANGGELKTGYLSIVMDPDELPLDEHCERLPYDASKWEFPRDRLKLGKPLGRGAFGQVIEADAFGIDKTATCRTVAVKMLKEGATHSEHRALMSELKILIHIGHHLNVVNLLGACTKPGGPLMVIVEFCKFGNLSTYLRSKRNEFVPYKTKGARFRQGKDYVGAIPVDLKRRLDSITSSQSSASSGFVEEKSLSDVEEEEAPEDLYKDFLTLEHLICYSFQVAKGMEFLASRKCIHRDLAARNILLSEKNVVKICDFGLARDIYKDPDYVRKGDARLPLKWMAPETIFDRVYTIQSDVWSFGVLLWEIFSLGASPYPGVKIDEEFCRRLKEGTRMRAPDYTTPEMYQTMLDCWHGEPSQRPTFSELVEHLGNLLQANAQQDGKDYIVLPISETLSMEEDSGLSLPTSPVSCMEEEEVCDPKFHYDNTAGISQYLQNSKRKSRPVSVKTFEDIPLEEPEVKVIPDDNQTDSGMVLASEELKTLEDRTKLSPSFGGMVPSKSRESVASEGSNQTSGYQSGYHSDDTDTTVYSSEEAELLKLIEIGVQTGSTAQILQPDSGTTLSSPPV

Structure (SMILES)	IC50 (FGFR1; [1])	IC50 (VEGFR2; [2])	IC50 (FGFR1)	IC50 (VEGFR2)
CNC(=O)n1ccc2cc(Oc3ccnc(NC(=O)NCC(=O)N4CCCC4)c3)ccc21 [Example 7, 5-(2-(3-(2-Oxo-2-(pyrrolidin-1-yl)ethyl)ureido)pyridin-4-yloxy)-1H-indole-1-carboxylic acid methylamide]	0.026 µM	0.008 µM		
CNC(=O)n1ccc2cc(Oc3ccnc(NC(=O)NCC(N)=O)c3)ccc21 [Example 11, 5-(2-(3-Carbamoylmethylureido)pyridin-4-yloxy)-1H-indole-1-carboxylic acid methylamide]	0.047 µM	0.003 µM		
CNC(=O)n1ccc2cc(Oc3ccnc(NC(=O)N[C@@H](CO)C(=O)N4CCCC4)c3)ccc21 [Example 18, 5-(2-(3-((1S)-1-Hydroxymethyl-2-oxo-2-pyrrolidin-1-ylethyl)ureido)pyridin-4-yloxy)-1H-indole-1-carboxylic acid methylamide]	0.07 µM	0.003 µM		
CNC(=O)n1ccc2cc(Oc3ccnc(NC(=O)NCCCC(=O)N4CCCC4)c3)ccc21 [Example 32, 5-(2-(3-(4-Oxo-4-(pyrrolidin-1-yl)butyl)ureido)pyridin-4-yloxy)-1H-indole-1-carboxylic acid methylamide]	0.016 µM	0.0093 µM		
CNC(=O)n1ccc2cc(Oc3ccnc(NC(=O)NCCCC(=O)NC4CC4)c3)ccc21 [Example 33, 5-(2-(3-(3-(Cyclopropylcarbamoyl)propyl)ureido)pyridin-4-yloxy)-1H-indole-1-carboxylic acid methylamide]	0.012 µM	0.0071 µM		
CNC(=O)n1ccc2cc(Oc3ccnc(NC(=O)NCCCC(=O)N4CCC(C)(O)CC4)c3)ccc21 [Example 34, 5-(2-(3-(4-(4-Hydroxy-4-methylpiperidin-1-yl)-4-oxobutyl)ureido)pyridin-4-yloxy)-1H-indole-1-carboxylic acid methylamide]	0.022 µM	0.0084 µM		
CNC(=O)CCCNC(=O)Nc1cc(Oc2ccc3c(ccn3C(=O)NC)c2)ccn1 [Example 36, 5-(2-(3-(3-(Methylcarbamoyl)propyl)ureido)pyridin-4-yloxy)-1H-indole-1-carboxylic acid methylamide]	0.016 µM	0.0034 µM		
CNC(=O)n1ccc2cc(Oc3ccnc(NC(=O)N4CCCC4)c3)ccc21 [Example 37, N1-Methyl-5-(2-(pyrrolidin-1-ylcarbonyl)amino-4-pyridyl)oxy-1H-1-indolecarboxamide]	0.0012 µM	0.0048 µM		
CNC(=O)n1ccc2cc(Oc3ccnc(NC(=O)N4CCC(=O)CC4)c3)ccc21 [Example 40, N1-methyl-5-(2-(4-oxopiperidin-1-ylcarbonyl)amino-4-pyridyl)oxy-1H-1-indolecarboxamide]			0.0069 µM	0.0057 µM
CNC(=O)CCCC1CCN(C(=O)Nc2cc(Oc3ccc4c(ccn4C(=O)NC)c3)ccn2)CC1 [Example 43, 5-(2-(((4-(3-Methylcarbamoylpropyl)piperidin-1-yl)carbonyl)amino)pyridin-4-yloxy)-1H-indole-1-carboxylic acid methylamide]	0.018 µM	0.0064 µM		
CNC(=O)n1ccc2cc(Oc3ccnc(NC(=O)N4CCC(CCCC(N)=O)CC4)c3)ccc21 [Example 44, 5-(2-(((4-(3-Carbamoylpropyl)piperidin-1-yl)carbonyl)amino)pyridin-4-yloxy)-1H-indole-1-carboxylic acid methylamide]	0.014 µM	0.0077 µM		
CNC(=O)n1ccc2cc(Oc3ccnc(NC(=O)NCCCS(C)(=O)=O)c3)ccc21 [Example 50, N1-Methyl-5-(2-((3-methylsulfonylpropylamino)carbonyl)amino-4-pyridyl)-oxy-1H-1-indolecarboxamide]	0.013 µM	0.005 µM		
O=C(Nc1cc(Oc2ccc3c(ccn3C(=O)NC3CC3)c2)ccn1)N1CCC(N2CCCC2)CC1 [Example 68, N1-Cyclopropyl-5-(2-(((4-(pyrrolidin-1-yl)piperidin-1-yl)carbonyl)amino)pyridin-4-yloxy)-1H-1-indolecarboxamide]	0.052 µM	0.037 µM		
CCNC(=O)n1ccc2cc(Oc3ccnc(NC(=O)N4CCC(O)CC4)c3)ccc21 [Example 79, N1-Ethyl-5-(2-((4-hydroxypiperidin-1-yl)carbonyl)amino-4-pyridyl)oxy-1H-1-indolecarboxamide]	0.025 µM	0.0098 µM		
CCNC(=O)n1ccc2cc(Oc3ccnc(NC(=O)N4CCCC4)c3)ccc21 [Example 81, N1-Ethyl-5-((2-((pyrrolidin-1-ylcarbonyl)amino)-4-pyridyl)oxy)-1H-1-indolecarboxamide]	0.038 µM	0.012 µM		
CCNC(=O)n1ccc2cc(Oc3ccnc(NC(=O)N4CCOCC4)c3)ccc21 [Example 82, N4-(4-((1-(Ethylamino)carbonyl-1H-5-indolyl)oxy)-2-pyridyl)-4-morpholinecarboxamide]	0.024 µM	0.015 µM		
